Reference: patent publication US20260265699A1, “STANDARDISING PLURIPOTENT STEM CELLS” (United Kingdom Research and Innovation, priority 2023, published 2026)
“Also recorded” adds a separate entry of the source.

Assays:
Assay type in all cases: cell-based, human
[1] = tested on: kolf2 cells (organoid non-competent batch); assay: Cerebral organoid differentiation, unguided protocol, bad batch of kolf2; settings: generation of organoids with MEK inhibition
Text: (§1) The so called “unguided protocol” relies on the natural propensity of PSCs to differentiate to neural fate and specifically forebrain when not exposed to any growth factors. The inventors cultured PSCs in Stemflex (Thermo) medium on plates coated with Matrigel growth factor reduced (Corning) and for generation of brain organoids they used STEMdiff Cerebral Organoid Kit (Stemcell Technologies). Despite these highly standardised conditions (FIG. 1A), the outcome of the protocol (i.e. the identity and quality of the tissues produced) can vary depending on the cell line that was used in the protocol or even between different batches of the same line (FIGS. 1 B and C). This makes producing good quality organoids from different lines difficult and unpredictable. To address this variability that plagues not only the neural organoid field but also others that rely on 2D and 3D differentiation to a variety of cell types, the inventors investigated the potential sources of this variability in PSCs and potential treatments to address this problem or, in other words, to standardise the performance of PSCs during differentiation.
(§2) Because neural differentiation represents the default program upon pluripotency exit, the ability of a cell line to undergo such unguided differentiation is also a good indication of their pluripotent state. […]

fiaj1 cells = assay: Cerebral organoid differentiation, unguided protocol, fiaj1 line; settings: fiaj 1
Text: as §1, §2

[2] = tested on: PSC lines that did not readily differentiate into neural tissue; assay: Cerebral organoid differentiation, unguided protocol (STEMdiff Cerebral Organoid Kit), panel of bad differentiator lines; settings: for Effect: organoid morphology: inhibition of Wnt at organoid stage, added at embedding stage
Text: The so called “unguided protocol” relies on the natural propensity of PSCs to differentiate to neural fate and specifically forebrain when not exposed to any growth factors. The inventors cultured PSCs in Stemflex (Thermo) medium on plates coated with Matrigel growth factor reduced (Corning) and for generation of brain organoids they used STEMdiff Cerebral Organoid Kit (Stemcell Technologies). […] To address this variability that plagues not only the neural organoid field but also others that rely on 2D and 3D differentiation to a variety of cell types, the inventors investigated the potential sources of this variability in PSCs and potential treatments to address this problem or, in other words, to standardise the performance of PSCs during differentiation.
Because neural differentiation represents the default program upon pluripotency exit, the ability of a cell line to undergo such unguided differentiation is also a good indication of their pluripotent state. The other approach was to in depth characterise PSC lines that either produce good or bad organoids by proteomics and phosphoproteomics, analysis of already available bulk RNAseq data to learn about their transcriptome, and by ATACseq to learn about open chromatin patterns. […] Based on the combination of information gathered from both approaches, a number of treatments were chosen to test on the bad differentiators.

burb1 cells = assay: Cerebral organoid differentiation, unguided protocol, burb1 line
Text: (§3) The so called “unguided protocol” relies on the natural propensity of PSCs to differentiate to neural fate and specifically forebrain when not exposed to any growth factors. The inventors cultured PSCs in Stemflex (Thermo) medium on plates coated with Matrigel growth factor reduced (Corning) and for generation of brain organoids they used STEMdiff Cerebral Organoid Kit (Stemcell Technologies). Despite these highly standardised conditions (FIG. 1A), the outcome of the protocol (i.e. the identity and quality of the tissues produced) can vary depending on the cell line that was used in the protocol or even between different batches of the same line (FIGS. 1 B and C). This makes producing good quality organoids from different lines difficult and unpredictable. To address this variability that plagues not only the neural organoid field but also others that rely on 2D and 3D differentiation to a variety of cell types, the inventors investigated the potential sources of this variability in PSCs and potential treatments to address this problem or, in other words, to standardise the performance of PSCs during differentiation. […]
(§4) To establish such an approach, the inventors analysed the epigenetic state of human pluripotent stem cells and the role of epigenetics in development. […]

sojd3 cells = assay: Cerebral organoid differentiation, unguided protocol, sojd3 line; settings: inhibition of Wnt in culture, Stemflex with 2-3 μM IWP2, long term (>8 passages)
Text: as §3, §4

PS cells = assay: PSC basal (maintenance) culture; settings: inhibition of SRC at basal culture, prolonged exposure
Text: as §1
There is a huge body of literature describing potential sources of PSC variability and a similar number of publications about ways to address this in a particular context, for example to increase efficiency of differentiation towards a certain tissue type. […]

## O=C(NOC[C@H](O)CO)c1ccc(F)c(F)c1Nc1ccc(I)cc1F [PD0325901]
[1]
  Effect: organoid differentiation: Some improvement in bad
fiaj1 cells; generation of organoids with MEK inhibition
  Effect: improvement of organoid differentiation: batch of kolf2, no

## COc1ccc(N(C(=O)Oc2c(C)cccc2C)c2ccnc(Nc3ccc(N4CCN(C)CC4)cc3)n2)c(OC)c1 [WH-4-023]
[2]; inhibition of SRC at organoid generation, alone
  Effect: organoid differentiation outcome: no improvement alone,
[2]; inhibition of SRC at organoid generation, used alongside with HRG
  Effect: organoid differentiation outcome: improves outcome when used

## recombinant human laminin 521 [L521]
burb1 cells; PSC culture on L521
  Effect: organoid generation: improved organoid generation
fiaj1 cells; culture on L521 micropatterns, areas of correct differentiation a small percentage of organoid volume
  Effect: organoid differentiation: worked to some extent in fiaj 1

## Cc1ccc2nc(NC(=O)CSc3nc4c(c(=O)n3-c3ccccc3)SCC4)sc2c1 [IWP2]
[2]
  Effect: organoid morphology: embedding stage improve
burb1 cells; inhibition of Wnt in culture, Stemflex with 2-3 μM IWP2, long term (>8 passages)
  Effect: organoid generation / brain organoid competency: able to restore organoid competency; also recorded: acquired brain organoid competency; also recorded: improved organoid
sojd3 cells
  Effect: organoid generation / brain organoid competency: did not improve; also recorded: no improvement in sojd3

## COc1cccc(-c2cn(-c3ccc(CCN4CCC(O)CC4)cc3)c3ncnc(N)c23)c1 [CGP-77675]
[2]; inhibition of SRC at basal culture
  Effect: organoid differentiation outcome: Worse organoid differentiation
PS cells
  Effect on PS cells in basal culture: outcome, differentiation of PS

B1: DKK-1: Wnt inhibition at organoid stage, added at Matrigel embedding (protein, UniProt O94907 32-266, looked up)
Dickkopf-related protein 1: TLNSVLNSNAIKNLPPPLGGAAGHPGSAVSAAPGILYPGGNKYQTIDNYQPYPCAEDEECGTDEYCASPTRGGDAGVQICLACRKRRKRCMRHAMCCPGNYCKNGICVSSDQNHFRGEIEETITESFGNDHSTLDGYSRRTTLSSKMYHTKGQEGSVCLRSSDCASGLCCARHFWSKICKPVLKEGQVCTKHRRKGSHGLEIFQRCYCGEGLSCRIQKDHHQASNSSRLHTCQRH
[2]
  Effect: organoid morphology: embedding stage improve
